Assay results reported in PMC3118614 (Biomedical chromatography : BMC, 2010).
Where two headings read alike, the source gives them in different places.

Tests used:
[1] = type: in vivo, olive baboons (Papio Anubis)
[2] = ref Rowland et al., 2007; cited from earlier work

Compound	Cmax (maximum concentration) ([1]; baboon serum, single oral dose of NVP 5 mg/kg, solution formulation, n = 2, mean) [ng/mL]	metabolites detected in human plasma (metabolic profile, in words) [2]	ratio of the plasma level of 12-OHNVP and 4-CANVP ([1]; in vivo, 5 mg/kg)	ratio of the plasma level of 12-OHNVP and 4-CANVP ([1]; in vivo, 10 mg/kg)	Cmax (maximum concentration) ([1]; in vivo, po, 5 mg/kg) [ng/mL]	Cmax (maximum concentration) ([1]; in vivo, po, 10 mg/kg) [ng/mL]	Cmax (maximum concentration) ([1]; in vivo, po, 400 mg) [ng/mL]	Cmax (maximum concentration) ([1]; in vivo, po, 800 mg) [ng/mL]
O=C1Nc2c(C(=O)O)ccnc2N(C2CC2)c2ncccc21 [4-CANVP, nevirapine 4-carboxylic acid]	144.90 ± 22.31	–	–	–	–	–	–	–
Cc1cc(=O)[nH]c2c1NC(=O)c1cccnc1N2C1CC1 [2-OHNVP, 2-hydroxynevirapine]	–	major metabolites	–	–	–	–	–	–
O=C1Nc2c(CO)ccnc2N(C2CC2)c2ncccc21 [12-OHNVP]	–	major metabolites	0.21	1.3	31.38 ± 10.59	275.25 ± 126.07	157.16 ± 7.06	385.38 ± 346.21
Cc1ccnc2c1NC(=O)c1cc(O)cnc1N2C1CC1 [8-OHNVP]	–	low plasma level	–	–	–	–	–	–
Cc1c(O)cnc2c1NC(=O)c1cccnc1N2C1CC1 [3-OHNVP]	–	major metabolites	–	–	11.50 ± 3.63	19.69 ± 9.94	16.53 ± 1.10	72.85 ± 60.37
